Biological target: Gamma-secretase
Test: Inhibition of gamma secretase expressed in SH-SY5Y cells
Type: cell-based, Homo sapiens

SMILES	IC50 [µM]
C=CC[C@H]1CCC[C@](c2cc(F)ccc2F)(S(=O)(=O)c2ccc(Cl)cc2)C1	0.085
COC(=O)CCC[C@@]1(C)CCC[C@](c2cc(F)ccc2F)(S(=O)(=O)c2ccc(Cl)cc2)C1 (relative stereo)	1.63
O=C[C@H]1CCC[C@](c2cc(F)ccc2F)(S(=O)(=O)c2ccc(Cl)cc2)C1 (relative stereo)	0.055
O=C[C@@H]1CCC[C@](c2cc(F)ccc2F)(S(=O)(=O)c2ccc(Cl)cc2)C1 (relative stereo)	0.077
COC(=O)/C=C/C[C@H]1CCC[C@](c2cc(F)ccc2F)(S(=O)(=O)c2ccc(Cl)cc2)C1 (relative stereo)	0.21
O=S(=O)(c1ccc(Cl)cc1)[C@@]1(c2cc(F)ccc2F)CCC[C@H](CCCO)C1 (relative stereo)	0.112
COC(=O)CCC[C@H]1CCC[C@](c2cc(F)ccc2F)(S(=O)(=O)c2ccc(Cl)cc2)C1 (relative stereo)	0.376
O=C(O)CC[C@H]1CCC[C@](c2cc(F)ccc2F)(S(=O)(=O)c2ccc(Cl)cc2)C1 (relative stereo)	0.38

These reach a lower IC50. Values come first.

IC50 [µM]	SMILES
0.044	C=CC[C@@H]1CCC[C@](c2cc(F)ccc2F)(S(=O)(=O)c2ccc(Cl)cc2)C1 (relative stereo)
0.024	O=C(O)CC[C@@H]1CCC[C@](c2cc(F)ccc2F)(S(=O)(=O)c2ccc(Cl)cc2)C1 (relative stereo)
0.01	COC(=O)/C=C/C[C@@H]1CCC[C@](c2cc(F)ccc2F)(S(=O)(=O)c2ccc(Cl)cc2)C1 (relative stereo)
0.01	COC(=O)CCC[C@]1(C)CCC[C@](c2cc(F)ccc2F)(S(=O)(=O)c2ccc(Cl)cc2)C1 (relative stereo)
0.008	O=S(=O)(c1ccc(Cl)cc1)[C@@]1(c2cc(F)ccc2F)CCC[C@@H](CCCO)C1 (relative stereo)
0.003	COC(=O)CCC[C@@H]1CCC[C@](c2cc(F)ccc2F)(S(=O)(=O)c2ccc(Cl)cc2)C1 (relative stereo)

— ChEMBL document CHEMBL1138944, “3-Substituted gem-cyclohexane sulfone based gamma-secretase inhibitors for Alzheimer's disease: conformational analysis and biological activity” (Bioorg Med Chem Lett, 2006)
